We go through 7 compounds from PMC9917025, “(2-Hydroxy-3-Methoxybenzylidene)thiazolo[3,2-a]pyrimidines: Synthesis, Self-Assembly in the Crystalline Phase and Cytotoxic Activity” (International Journal of Molecular Sciences, 2023).

Series [1] concerns M-HeLa clone 11 (epithelioid carcinoma of the cervix, subline HeLa, clone M-HeLa). The experiment in a line: MTT cytotoxicity assay, M-HeLa cells. The class given is cell-based. The settings on record: for IC50: Homo sapiens, M-HeLa, MTT, 48 h incubation, mean ± SD, triplicate; for selectivity index (SI): ratio between IC50 for normal cells and IC50 for tumor cells, with respect to M-HeLa cell line. The text has this: (§1) For the experiments, the tumor cell cultures of M-HeLa clone 11 (epithelioid carcinoma of the cervix, subline HeLa., clone M-HeLa), HuTu 80, human duodenal adenocarcinoma, MCF7—human breast adenocarcinoma (pleural fluid) collected from the Institute of Cytology, Russian Academy of Sciences (St. Petersburg, Russia); PC3—prostate adenocarcinoma cell line collected from ATCC (American Type Cell Collection, Manassas, VA, USA; CRL 1435; human liver cells (Chang liver) and the Research Institute of Virology of the Russian Academy of Medical Sciences (Moscow, Russia) were used for cytotoxicity analysis.
(§2) The cytotoxic effect on cells was determined by the colorimetric method of cell proliferation—MTT test. The cells were seeded on a 96-well Nunc plate at a concentration of 5 × 10^3 cells per well in a volume of 100 µL of medium and cultured in a CO2 incubator at 37 °C until a monolayer was formed. Then, the nutrient medium was removed and 100 μL of the test drug solution in these dilutions was added to the wells prepared directly in the nutrient medium with the addition of 5% DMSO to improve solubility. After 48 h of cell incubation with test compounds, the nutrient medium was removed from the plates and 100 μL of serum-free nutrient medium with MTT at a concentration of 0.5 mg/mL was added and incubated for 4 h at 37 °C. C. Formazan crystals were added to 100 µL of DMSO. The optical density was recorded at 540 nm on an Invitrologic microplate reader (Novosibirsk, Russia). The experiments for all compounds were repeated three times.
In general terms: Tetrazolium assays rely on reduction of a dye to a coloured formazan, in cell work by metabolically active cells.

Series [2] concerns MCF−7 (human breast adenocarcinoma). The experiment in a line: MTT cytotoxicity assay, MCF-7 cells. The settings on record: MCF7, 48 h incubation, mean ± SD, triplicate. The class given is cell-based. As to the method: The cytotoxic effect on cells was determined by the colorimetric method of cell proliferation—MTT test. […] C. Formazan crystals were added to 100 µL of DMSO. The optical density was recorded at 540 nm on an Invitrologic microplate reader (Novosibirsk, Russia). The experiments for all compounds were repeated three times.

Series [3] concerns PC3 (prostate adenocarcinoma cell line). The experiment in a line: MTT cytotoxicity assay, PC3 cells. The series is classed as cell-based. The settings on record: Homo sapiens, PC-3, 48 h incubation, mean ± SD, triplicate.
Text: as §1, §2

Series [4] concerns HuTu 80 (human duodenal adenocarcinoma). The series is described as follows: MTT cytotoxicity assay, HuTu 80 cells. The class given is cell-based. The settings on record: for IC50: Homo sapiens, HuTu80, MTT, 48 h incubation, mean ± SD, triplicate.
Text: as §1, §2

The test system of series [5] is Chang liver (HeLa derivative), human liver cells. The series is described as follows: MTT cytotoxicity assay, normal Chang liver cells. The series is classed as cell-based. The settings on record: for IC50: Homo sapiens, HeLa, MTT, 48 h incubation, mean ± SD, triplicate, read-out: IC50 (µM) Chang Liver (HeLa), normal cell line.
Text: as §1, §2

Molecules are shown by their SMILES. Where only a bound is given, the exact number is not on record here.

A word on the IC50: it is the concentration at which inhibition is half-maximal. What is called melting point is the temperature, or range, at which the solid turns liquid. As for `COc1cccc(/C=c2\sc3n(c2=O)C(c2ccc(C)cc2)C(C(C)=O)=C(C)N=3)c1O` (stereo not shown) [Compound 1, 6-Acetyl-(Z)−2-(2-hydroxy−3-methoxybenzylidene)−7-methyl−5-(p-tolyl)−2H-thiazolo[3,2-a]pyrimidine−3(5H)-one], the melting point fell in the range of 209 to 211 °C. For the same compound, in series [1], it took 88 ± 7 µM to reach half-maximal inhibition (IC50). The IC50 in series [2] is over 100 µM. Further, half-maximal inhibition in series [3] (IC50) required 57.4 ± 4.5 µM. In addition, half-maximal inhibition in series [4] (IC50) was put at 88 ± 6.9 µM. The IC50 in series [5] was over 100 µM.

On to `CCOC(=O)C1=C(C)N=c2s/c(=C\c3cccc(OC)c3O)c(=O)n2C1c1cccc([N+](=O)[O-])c1` (stereo not shown) [Compound 2, Ethyl (Z)−2-(2-hydroxy−3-methoxybenzylidene)−7-methyl−5-(3-nitrophenyl)−3-oxo−2,3-dihydro−5H-thiazolo[3,2-a]pyrimidine−6-carboxylate], for which the melting point was 206 to 208 °C. Also, in series [1], the “cytotoxicity against M-HeLa (in words)” value is reported as “high cytotoxicity”, it took 16.2 ± 1.3 µM to reach half-maximal inhibition (IC50) and the “selectivity index (SI)” value is reported as “higher than 6”. The “efficiency of cytotoxicity towards M-HeLa compared to Sorafenib” value in series [1] (relative to reference drug Sorafenib) is “two times higher”. Also, the IC50 in series [2] is 72 ± 5.8 µM. This compound came in with an IC50 in series [3] of over 100 µM. In addition, in series [4], the IC50 worked out at 90 ± 8 µM. Moreover, in series [5], the “activity on normal cells, Chang liver (in words)” value was “low biological activity” and the 50% inhibitory concentration (IC50) was over 100 µM.

Turning to `CCOC(=O)C1=C(C)N=c2s/c(=C\c3cccc(OC)c3O)c(=O)n2C1c1ccccc1OC` (stereo not shown) [Compound 3, Ethyl (Z)-2-(2-hydroxy-3-methoxybenzylidene)-7-methyl-5-(2-methoxyphenyl)-3-oxo-2,3-dihydro-5H-thiazolo[3,2-a]pyrimidine-6-carboxylate], the melting point lay in the range of 193 to 195 °C. The compound also registered an IC50 in series [1] of 98.1 ± 7.7 µM. This compound showed an IC50 in series [2] of over 100 µM. Further, in series [3], the IC50 was 54.1 ± 4.3 µM. This compound returned an IC50 in series [4] of over 100 µM. In addition, the IC50 in series [5] turned out to be 96 ± 7.5 µM.

`CCOC(=O)C1=C(C)N=c2s/c(=C\c3cccc(OC)c3O)c(=O)n2C1c1ccccc1` (stereo not shown) [Compound 4, Ethyl (Z)−2-(2-hydroxy−3-methoxybenzylidene)−7-methyl−5-phenyl−3-oxo−2,3-dihydro−5H-thiazolo[3,2-a]pyrimidine−6-carboxylate] displayed a melting point of 231 to 233 °C. For the same compound, the IC50 in series [1] was over 100 µM. For the same compound, the IC50 in series [2] was over 100 µM. Moreover, the IC50 in series [3] was over 100 µM. Moreover, in series [4], the IC50 is over 100 µM. Moreover, the IC50 in series [5] is over 100 µM.

`CCOC(=O)C1=C(C)N=c2s/c(=C\c3cccc(OC)c3O)c(=O)n2C1c1cccc(Br)c1` (stereo not shown) [Compound 5, Ethyl 5-(3-bromophenyl)-(Z)−2-(2-hydroxy−3-methoxybenzylidene)−7-methyl−3-oxo−2,3-dihydro−5H-thiazolo[3,2-a]pyrimidine−6-carboxylate] came in with a melting point of 190 to 192 °C. The IC50 in series [1] was over 100 µM. Besides, in series [2], the IC50 is over 100 µM. In series [3], the IC50 was over 100 µM. For the same compound, in series [4], the “cytotoxicity towards HuTu 80 (in words)” value is given as “Moderate cytotoxicity” and the IC50 was determined as 43.3 ± 3.4 µM. Further, in series [5], the “activity on normal cells, Chang liver (in words)” value is “Moderate cytotoxicity” and the IC50 worked out at 51.4 ± 4.1 µM.

In the case of `CCOC(=O)C1=C(C)N=c2s/c(=C\c3cccc(OC)c3O)c(=O)n2C1c1ccc(Br)cc1` (stereo not shown) [Compound 6, Ethyl 5-(4-bromophenyl)-(Z)−2-(2-hydroxy−3-methoxybenzylidene)−7-methyl−3-oxo−2,3-dihydro−5H-thiazolo[3,2-a]pyrimidine−6-carboxylate], the melting point is 234 to 236 °C. This compound gave an IC50 in series [1] of 85 ± 7.8 µM. The IC50 in series [2] was over 100 µM. Besides, the IC50 in series [3] was 100 ± 8.6 µM. This compound came in with an IC50 in series [4] of 90.3 ± 8.1 µM. The concentration for half-maximal inhibition (IC50) in series [5] amounted to 64.2 ± 5.1 µM.

For `CNC(=O)c1cc(Oc2ccc(NC(=O)Nc3ccc(Cl)c(C(F)(F)F)c3)cc2)ccn1` [Sorafenib, reference compound], the results for the IC50 in series [1], in series [3] and in series [4] were 25 ± 1.8 µM, 12.7 ± 1.1 µM and 13 ± 1.2 µM, respectively. The “selectivity index (SI)” value in series [1] was “lower than 1”.
